According to ChEMBL document CHEMBL1141678 (Eur J Med Chem, 2008):

Columns and labels:
Cytochrome P450 1A2 = molecular target: T1, Cytochrome P450 1A2 (Homo sapiens, UniProt P05177); assay: Inhibition of human recombinant CYP1A2; conditions: for log(1/IC50): human
T1 sequence (P05177 whole entry): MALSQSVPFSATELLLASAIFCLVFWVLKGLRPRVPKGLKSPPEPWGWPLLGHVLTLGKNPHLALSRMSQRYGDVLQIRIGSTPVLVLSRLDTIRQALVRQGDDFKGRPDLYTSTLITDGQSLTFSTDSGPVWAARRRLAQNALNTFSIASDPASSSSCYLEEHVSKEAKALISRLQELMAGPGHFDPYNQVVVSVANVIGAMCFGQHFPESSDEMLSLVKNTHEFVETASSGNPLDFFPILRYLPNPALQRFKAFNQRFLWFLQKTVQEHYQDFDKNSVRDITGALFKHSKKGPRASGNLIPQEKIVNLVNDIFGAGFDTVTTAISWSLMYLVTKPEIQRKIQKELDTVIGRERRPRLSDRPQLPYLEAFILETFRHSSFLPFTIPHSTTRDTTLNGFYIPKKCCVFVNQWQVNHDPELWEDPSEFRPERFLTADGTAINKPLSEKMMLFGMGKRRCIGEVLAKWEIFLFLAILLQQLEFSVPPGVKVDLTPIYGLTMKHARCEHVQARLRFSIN

Cytochrome P450 2B6 [1] = molecular target: T2, Cytochrome P450 2B6 (Homo sapiens, UniProt P20813); assay: Inhibition of human recombinant CYP2B6; type: ADME
T2 sequence (P20813 whole entry): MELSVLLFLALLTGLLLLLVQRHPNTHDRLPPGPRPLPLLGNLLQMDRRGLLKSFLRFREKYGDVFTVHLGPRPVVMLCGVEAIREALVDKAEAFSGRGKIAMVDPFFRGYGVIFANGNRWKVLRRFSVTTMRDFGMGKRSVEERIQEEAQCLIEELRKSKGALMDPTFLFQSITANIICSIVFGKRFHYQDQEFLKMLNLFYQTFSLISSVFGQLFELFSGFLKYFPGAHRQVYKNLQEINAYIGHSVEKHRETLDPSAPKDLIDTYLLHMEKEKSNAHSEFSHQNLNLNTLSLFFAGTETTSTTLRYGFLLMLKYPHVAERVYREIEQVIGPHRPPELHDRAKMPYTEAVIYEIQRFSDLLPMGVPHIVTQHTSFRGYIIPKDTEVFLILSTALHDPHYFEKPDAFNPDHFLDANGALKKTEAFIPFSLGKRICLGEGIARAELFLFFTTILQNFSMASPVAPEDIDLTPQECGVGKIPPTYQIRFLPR

Cytochrome P450 2C9 [2] = molecular target: T3, Cytochrome P450 2C9 (Homo sapiens, UniProt P11712); assay: Inhibition of human recombinant CYP2C9 in presence of reduced glutathione; type: ADME; conditions: recombinant enzyme
Cytochrome P450 2B6 [3] = molecular target: T2, Cytochrome P450 2B6; assay: Inhibition of human recombinant CYP2B6 in presence of reduced glutathione; type: ADME; conditions: recombinant enzyme
Cytochrome P450 3A4 [4] = molecular target: T4, Cytochrome P450 3A4 (Homo sapiens, UniProt P08684); assay: Inhibition of human recombinant CYP3A4 in presence of reduced glutathione; type: ADME; conditions: recombinant enzyme
Cytochrome P450 2D6 [5] = molecular target: T5, Cytochrome P450 2D6 (Homo sapiens, UniProt P10635); assay: Inhibition of human recombinant CYP2D6; type: ADME
Cytochrome P450 2C9 [6] = molecular target: T3, Cytochrome P450 2C9; assay: Inhibition of human recombinant CYP2C9; type: ADME
CYP2B6 = molecular target: T6, CYP2B6 (Homo sapiens, UniProt P20813); assay: Inhibition of human recombinant CYP2B6 at 100 uM; type: ADME
T6 sequence (P20813 whole entry): T2 sequence (P20813 whole entry)

Cytochrome P450 2D6 [7] = molecular target: T5, Cytochrome P450 2D6; assay: Inhibition of human recombinant CYP2D6 in presence of reduced glutathione; type: ADME; conditions: recombinant enzyme
Cytochrome P450 3A4 [8] = molecular target: T4, Cytochrome P450 3A4; assay: Inhibition of human recombinant CYP3A4; type: ADME

T3 sequence (P11712 whole entry): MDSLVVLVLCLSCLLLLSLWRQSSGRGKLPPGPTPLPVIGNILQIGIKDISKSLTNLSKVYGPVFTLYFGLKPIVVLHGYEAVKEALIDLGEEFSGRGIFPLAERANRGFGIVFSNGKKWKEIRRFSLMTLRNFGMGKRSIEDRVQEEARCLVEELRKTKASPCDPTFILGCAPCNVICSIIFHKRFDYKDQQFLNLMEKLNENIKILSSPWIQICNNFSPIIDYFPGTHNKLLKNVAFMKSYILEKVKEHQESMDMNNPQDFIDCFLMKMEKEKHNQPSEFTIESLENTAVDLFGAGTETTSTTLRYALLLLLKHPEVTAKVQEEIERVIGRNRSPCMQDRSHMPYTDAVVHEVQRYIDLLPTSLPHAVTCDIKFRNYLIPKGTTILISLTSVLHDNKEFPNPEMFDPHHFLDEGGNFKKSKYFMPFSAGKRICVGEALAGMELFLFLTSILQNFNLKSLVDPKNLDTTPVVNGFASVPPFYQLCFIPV
T5 sequence (P10635 whole entry): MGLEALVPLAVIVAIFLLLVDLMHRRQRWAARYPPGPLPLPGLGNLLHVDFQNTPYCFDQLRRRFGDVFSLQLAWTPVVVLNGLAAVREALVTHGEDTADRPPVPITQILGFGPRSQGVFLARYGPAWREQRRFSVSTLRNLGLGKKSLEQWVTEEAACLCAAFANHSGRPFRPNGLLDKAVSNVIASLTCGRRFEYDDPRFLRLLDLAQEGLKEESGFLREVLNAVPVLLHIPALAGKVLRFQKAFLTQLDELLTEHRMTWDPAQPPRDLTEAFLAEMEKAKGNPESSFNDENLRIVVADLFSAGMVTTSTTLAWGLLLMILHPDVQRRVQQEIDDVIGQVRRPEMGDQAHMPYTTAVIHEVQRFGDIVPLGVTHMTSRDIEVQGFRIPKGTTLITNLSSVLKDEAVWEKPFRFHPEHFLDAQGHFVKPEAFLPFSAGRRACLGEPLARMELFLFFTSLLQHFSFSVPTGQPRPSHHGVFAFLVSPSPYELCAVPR
T4 sequence (P08684 whole entry): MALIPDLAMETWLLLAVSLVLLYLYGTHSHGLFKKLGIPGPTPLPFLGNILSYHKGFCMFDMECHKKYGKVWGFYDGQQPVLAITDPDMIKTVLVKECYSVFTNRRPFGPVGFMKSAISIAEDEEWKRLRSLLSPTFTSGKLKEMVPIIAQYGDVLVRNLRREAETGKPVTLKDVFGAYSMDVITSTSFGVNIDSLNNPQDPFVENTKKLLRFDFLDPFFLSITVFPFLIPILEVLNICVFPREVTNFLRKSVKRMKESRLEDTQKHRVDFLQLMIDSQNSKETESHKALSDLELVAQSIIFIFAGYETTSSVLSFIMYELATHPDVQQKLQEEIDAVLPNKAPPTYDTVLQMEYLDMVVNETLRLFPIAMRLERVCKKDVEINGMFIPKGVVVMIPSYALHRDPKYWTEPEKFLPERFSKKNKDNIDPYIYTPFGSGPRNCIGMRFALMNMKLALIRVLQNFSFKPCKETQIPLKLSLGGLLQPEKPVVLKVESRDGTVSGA

Row | SMILES | IC50 (Cytochrome P450 1A2) [µM] | log(1/IC50) (Cytochrome P450 1A2; recombinant enzyme) [mM] | IC50 (Cytochrome P450 2B6 [1]) [µM] | Activity (Cytochrome P450 2C9 [2]) | Activity (Cytochrome P450 2B6 [3]) | Activity (Cytochrome P450 3A4 [4]) | IC50 (Cytochrome P450 2D6 [5]) [µM] | IC50 (Cytochrome P450 2C9 [6]) [µM] | inhibition at 100 µM (CYP2B6) [%] | Activity (Cytochrome P450 2D6 [7]) | IC50 (Cytochrome P450 3A4 [8]) [µM] | log(1/IC50) (Cytochrome P450 1A2; recombinant CYP1A2)
1 | COc1cc(/C=C/C(=O)/C=C/c2cc(OC)c(O)c(OC)c2)cc(OC)c1O | 75.2 | 1.124 | 24.8 | Not Active | Not Active | Not Active | 82.7 | 59 | > 20 | Not Active | 13.2 | 
2 | COc1cc(/C=C/C(=O)CC(=O)/C=C/c2ccc(O)c(OC)c2)ccc1O [CURCUMIN] | 40 |  | 24.5 |  |  |  | 50.3 |  |  |  | 16.3 | 
3 | Cc1cc(/C=C/C(=O)/C=C/c2cc(C)c(O)c(C)c2)cc(C)c1O | 30.4 |  | 44.8 | Not Active | Not Active | Not Active | 13.2 | 62.8 | > 20 | Not Active | 40.3 | 1.517
4 | CC(C)(C)c1cc(/C=C2\CC/C(=C\c3cc(C(C)(C)C)c(O)c(C(C)(C)C)c3)C2=O)cc(C(C)(C)C)c1O | 42.8 |  |  | Not Active | Not Active | Not Active | 119 | 55 |  | Not Active |  | 1.369
5 | COc1cc(/C=C2\CC/C(=C\c3cc(OC)c(O)c(OC)c3)C2=O)cc(OC)c1O |  |  | 70 | Not Active | Not Active | Not Active |  |  | > 20 | Not Active | 38.3 | 
